A short description of data set [1]: log P by HPLC on reversed-phase column (EEC directive 79/831 Annex V.A8). The data set is classed as physicochemical. The conditions noted are these: for log p a): HPLC on reversed-phase column; for log p: HPLC on reversed-phase column (footnote a). In a few lines: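 Reversed-phase (C18) HPLC at 43° C, following EEC directive 79/831 Annex V.A8.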
Another data set concerns Diabrotica balteata. Description: Diabrotica balteata spray test. The class given is in vivo. Particulars: application rate 160 μg/well, wheat grains with beetle larvae, after 7 days. As to the method:
Diabrotica balteata—Spray Test Solvent: 78 parts by weight of acetone • • 1.5 parts by weight of dimethylformamide Emulsifier: alkylaryl polyglycol ether
(§1) To produce a suitable active ingredient formulation, 1 part by weight of active ingredient is dissolved with the stated parts by weight of solvent and made up with water containing an emulsifier concentration of 1000 ppm until the desired concentration is attained. To produce further test concentrations, the formulation is diluted with emulsifier-containing water.
Pre-swollen wheat grains (Triticum aestivum) are incubated in a multiwell plate filled with agar and a little water for one day (5 seed grains per cavity). The germinated wheat grains are sprayed with an active ingredient formulation of the desired concentration. Subsequently, each cavity is infected with 10-20 beetle larvae of Diabrotica balteata.
After 7 days, the efficacy in % is determined. 100% means that all wheat plants have grown as in the untreated, uninfected control; 0% means that no wheat plant has grown.

Data set [2] has as its system Myzus persicae. Description: Myzus persicae oral test. The class given is in vivo. Particulars: application rate 20 ppm, oral uptake through parafilm, after 5 days. In a few lines:
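Oral feeding format: mixed-stage Myzus persicae imbibe acetone/water compound formulation in sugared IPL41 medium through parafilm. Efficacy assessed as percent aphids killed at day 5.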

Data set [3] has as its system Myzus persicae. Description: Myzus persicae spray test (Chinese cabbage leaf discs). The data set is classed as in vivo. The conditions noted are these: application rate 500 g/ha, after 6 days. The protocol:
Myzus persicae—Spray Test Solvent: 78 parts by weight of acetone • • 1.5 parts by weight of dimethylformamide Emulsifier: alkylaryl polyglycol ether
as §1
Discs of Chinese cabbage leaves (Brassica pekinensis) infested by all stages of the green peach aphid (Myzus persicae) are sprayed with an active ingredient formulation of the desired concentration.
After 6 days, the efficacy in % is determined. 100% means that all the aphids have been killed; 0% means that no aphids have been killed.

In the case of `CCCNC(=O)c1c([O-])n(C(C)c2ccc(Cl)nc2)c2c(C)ccc[n+]12` (racemic) [Example I-1-258], in data set [1], the “log p a)” value is recorded as 2.23. This compound registered an efficacy in the data set on Diabrotica balteata of 80%.
Take `O=C(COCc1ccccc1)c1c([O-])n(Cc2cnc(Cl)s2)c2cccc[n+]12` [Example I-1-041]: the log p in data set [1] was determined as 2.35. For the same compound, the efficacy in the data set on Diabrotica balteata was found to be 80%; with Myzus persicae [2], 100%.
In data set [1], `Cn1nccc1OCC(=O)c1c([O-])n(Cc2cnc(Cl)s2)c2cccc[n+]12` [Example I-1-086] displayed a log p of 1.53. Moreover, the efficacy in the data set with Myzus persicae [2] and with Myzus persicae [3] was 100% throughout.
As to `Cc1ccn(CC(=O)c2c([O-])n(Cc3cnc(Cl)s3)c3c(C)ccc[n+]23)n1` [Example I-1-092], the log p in data set [1] stood at 1.84. The efficacy in the data set with Myzus persicae [2] is reported as 100%; with Myzus persicae [3], 90%.
For `COC(=O)c1c([O-])n(Cc2ccc(Cl)nc2)c2cccc[n+]12` [Example I-1-101], in that order: 1.18, 100% and 90%.
`O=C(Cn1cccn1)c1c([O-])n(Cc2ccc(Cl)nc2)c2ccc(F)c[n+]12` [Example I-1-106]: in data set [1], the log p is recorded as 1.53. In addition, the efficacy with Myzus persicae [2] and in the data set with Myzus persicae [3] was 90% in each case.
In the case of `COC(=O)c1c([O-])n(Cc2cncnc2)c2cccc[n+]12` [Example I-1-107], in data set [1], the log p is given as 0.42. The efficacy in the data set with Myzus persicae [2] amounted to 100%; in the data set on Myzus persicae [3] it was 90%.
With `CCOCC(=O)c1c([O-])n(Cc2cnc(Cl)s2)c2ccc(F)c[n+]12` [Example I-1-112], the log p in data set [1] is recorded as 1.58. Moreover, the efficacy was 100% in the data set with Myzus persicae [2] and 90% with Myzus persicae [3].
In data set [1], `COC(=O)c1c([O-])n(Cc2cnc(Cl)s2)c2cccc(C)[n+]12` [Example I-1-122] yielded a log p of 1.32. For the same compound, the figures for the efficacy in the data set with Myzus persicae [2] and in the data set on Myzus persicae [3] were 100% and 90%, respectively.
On to `CNC(=O)c1c([O-])n(Cc2cnc(Cl)s2)c2cccc[n+]12` [Example I-1-128], for which the log p in data set [1] is reported as 1.31. Also, the efficacy with Diabrotica balteata was 100%.
Take `CCCNC(=O)c1c([O-])n(Cc2cnc(Cl)s2)c2cccc[n+]12` [Example I-1-129]: the log p in data set [1] is recorded as 1.98. In addition, the efficacy in the data set with Diabrotica balteata and in the data set with Myzus persicae [2] was 100% each time.
Regarding `O=C(NC1CCC1)c1c([O-])n(Cc2cnc(Cl)s2)c2cccc[n+]12` [Example I-1-135], the log p in data set [1] stood at 2.11. Also, the efficacy was found to be 80% in the data set on Diabrotica balteata and 90% in the data set with Myzus persicae [2].
Regarding `O=C(NCc1ccccc1)c1c([O-])n(Cc2cnc(Cl)s2)c2cccc[n+]12` [Example I-1-148], the log p in data set [1] is given as 2.41. Further, the efficacy in the data set on Diabrotica balteata and in the data set with Myzus persicae [2] was 100% each time.
The compound `COCC(=O)c1c([O-])n(C(C)c2ccc(Cl)nc2)c2cccc[n+]12` (centres unmarked) [Example I-1-178] displayed a log p in data set [1] of 1.35. Besides, the efficacy was 100% with Myzus persicae [2] and 90% with Myzus persicae [3].
For `Cc1ccc[n+]2c(C(=O)NC3CC3)c([O-])n(Cc3cnc(Cl)s3)c12` [Example I-1-203], the “log p a)” value in data set [1] is 1.93. The efficacy in the data set with Diabrotica balteata and in the data set with Myzus persicae [2] was 100% in each case.
As to `Cc1ccc[n+]2c(C(=O)NC(C)c3ccc(Cl)cc3)c([O-])n(Cc3cnc(Cl)s3)c12` (centres unmarked) [Example I-1-210], the “log p a)” value in data set [1] came to 3.46. The efficacy in the data set on Myzus persicae [2] and with Myzus persicae [3] was 100% each time.
For the compound `Cc1ccc[n+]2c(C(=O)Nc3cccc(C(F)(F)F)c3)c([O-])n(Cc3cnc(Cl)s3)c12` [Example I-1-216], in data set [1], the “log p a)” value was found to be 4.06. Further, the efficacy in the data set with Diabrotica balteata and with Myzus persicae [2] was 100% in each case.
In the case of `O=C(Nc1cccc(OC(F)(F)F)c1)c1c([O-])n(Cc2cnc(Cl)s2)c2cccc[n+]12` [Example I-1-230], the “log p a)” value in data set [1] is 3.87. The compound also gave an efficacy in the data set on Diabrotica balteata of 100%.
Turning to `O=C(Nc1cccc(C(F)(F)F)c1)c1c([O-])n(Cc2cnc(Cl)s2)c2cccc[n+]12` [Example I-1-233], the “log p a)” value in data set [1] is 3.76. The compound further yielded an efficacy with Diabrotica balteata of 80%.
For the compound `CC(c1ccc(Cl)nc1)n1c([O-])c(C(=O)Nc2cccc(C(F)(F)F)c2)[n+]2ccccc12` (centres unmarked) [Example I-1-238], the “log p a)” value in data set [1] is listed as 3.72. This compound also showed an efficacy with Diabrotica balteata of 80%.
On to `Cc1ccc[n+]2c(C(=O)Nc3ncccc3F)c([O-])n(Cc3cnc(Cl)s3)c12` [Example I-1-274], for which the “log p a)” value in data set [1] worked out at 1.78. Further, the efficacy in the data set with Myzus persicae [2] is given as 100%; in the data set on Myzus persicae [3], 90%.
Take `CCCNC(=O)c1c([O-])n(Cc2cnc(Cl)cn2)c2cccc[n+]12` [Example I-1-279]: the “log p a)” value in data set [1] worked out at 1.81. Also, the efficacy with Myzus persicae [2] turned out to be 100%; in the data set with Myzus persicae [3], 90%.
Consider `Cc1ccc[n+]2c(C(=O)NC3CC3)c([O-])n(C(C)c3cnc(Cl)s3)c12` (centres unmarked) [Example I-1-290], for which, in data set [1], the “log p a)” value came to 2.2. In the data set with Diabrotica balteata, the efficacy came to 100%.
Regarding `Cc1ccc[n+]2c(C(=O)Nc3c(F)cccc3F)c([O-])n(Cc3cnc(Cl)s3)c12` [Example I-1-291], the “log p a)” value in data set [1] was determined as 3.07. For the same compound, in the data set on Diabrotica balteata, the efficacy turned out to be 80%.
Consider `CCC(CC)OCC(=O)c1c([O-])n(Cc2cnc(Cl)s2)c2c(C)ccc[n+]12` [Example I-1-293], for which the “log p a)” value in data set [1] is reported as 2.76. Also, the efficacy in the data set with Myzus persicae [2] and in the data set on Myzus persicae [3] was 100% each time.
`Cc1ccc[n+]2c(C(=O)COC(C)(C)C)c([O-])n(Cc3cnc(Cl)s3)c12` [Example I-1-296]: the “log p a)” value in data set [1] worked out at 2.12. Further, the efficacy in the data set on Myzus persicae [2] was 100%; with Myzus persicae [3] it was 90%.
With `Cc1ccc[n+]2c(C(=O)COCC(F)(F)F)c([O-])n(Cc3cnc(Cl)s3)c12` [Example I-1-297], the “log p a)” value in data set [1] was 2.34. Besides, the efficacy is on record as 100% with Myzus persicae [2] and 90% with Myzus persicae [3].
For `O=C(Nc1ncccc1Cl)c1c([O-])n(Cc2cnc(Cl)s2)c2cccc[n+]12` [Example I-1-301], in that order: 1.63, 100% and 100%.
On to `Cc1cccc(Cl)c1NC(=O)c1c([O-])n(Cc2cnc(Cl)s2)c2cccc[n+]12` [Example I-1-304], for which the “log p a)” value in data set [1] is listed as 2.8. The efficacy with Myzus persicae [2] and in the data set on Myzus persicae [3] was 100% throughout.
As to `O=C(Nc1c(Cl)ccnc1Cl)c1c([O-])n(Cc2cnc(Cl)s2)c2cccc[n+]12` [Example I-1-305], in data set [1], the “log p a)” value is listed as 2.14. The efficacy in the data set with Myzus persicae [2] amounted to 100%; in the data set on Myzus persicae [3], 90%.
Turning to `O=C(Nc1cccnc1Cl)c1c([O-])n(Cc2cnc(Cl)s2)c2cccc[n+]12` [Example I-1-308], the “log p a)” value in data set [1] is 2.4. Moreover, the efficacy with Myzus persicae [2] amounted to 100%; in the data set with Myzus persicae [3], 90%.
Turning to `Cc1ccnc(Cl)c1NC(=O)c1c([O-])n(Cc2cnc(Cl)s2)c2cccc[n+]12` [Example I-1-309], the “log p a)” value in data set [1] is 2.03. Further, the efficacy in the data set on Myzus persicae [2] and in the data set on Myzus persicae [3] was 100% each time.
Regarding `N#Cc1cccnc1NC(=O)c1c([O-])n(Cc2cnc(Cl)s2)c2cccc[n+]12` [Example I-1-310], in data set [1], the “log p a)” value was found to be 1.75. In addition, the efficacy in the data set on Myzus persicae [2] was 100%; in the data set on Myzus persicae [3], 90%.
Take `O=C(Nc1ccccc1C(F)(F)F)c1c([O-])n(Cc2cnc(Cl)s2)c2cccc[n+]12` [Example I-1-311]: in data set [1], the “log p a)” value is reported as 3.22. Further, the efficacy in the data set with Myzus persicae [2] and with Myzus persicae [3] was 100% in each case.
As to `O=C(Nc1c(F)cccc1F)c1c([O-])n(Cc2ccc(Cl)nc2)c2cccc[n+]12` [Example I-1-313], the “log p a)” value in data set [1] stood at 2.27. Also, the efficacy is 100% in the data set with Myzus persicae [2] and 90% in the data set on Myzus persicae [3].
As to `O=C(Nc1ncccc1Cl)c1c([O-])n(Cc2ccc(Cl)nc2)c2cccc[n+]12` [Example I-1-315], the “log p a)” value in data set [1] was 1.46. The efficacy in the data set with Myzus persicae [2] and in the data set on Myzus persicae [3] was 100% in each case.
Turning to `N#Cc1cccc(Cl)c1NC(=O)c1c([O-])n(Cc2cnc(Cl)s2)c2cccc[n+]12` [Example I-1-319], the “log p a)” value in data set [1] is recorded as 2.43. For the same compound, the values for the efficacy in the data set with Myzus persicae [2] and in the data set with Myzus persicae [3] were 100% and 90%, respectively.
As for `Cn1nccc1NC(=O)c1c([O-])n(Cc2ccc(Cl)nc2)c2cccc[n+]12` [Example I-1-325], the “log p a)” value in data set [1] came out at 1.49. In addition, the values for the efficacy in the data set on Myzus persicae [2] and in the data set on Myzus persicae [3] were 100% and 90%, respectively.
With `Cc1ccccc1NC(=O)c1c([O-])n(Cc2ccc(Cl)nc2)c2cccc[n+]12` [Example I-1-328], in data set [1], the “log p a)” value is 2.73. Also, the efficacy in the data set with Myzus persicae [2] was 100%; in the data set on Myzus persicae [3], 90%.

For the origin of these results see US20180282323A1, “Mesoionic imidazole derivatives as insecticides” (BAYER CROPSCIENCE AKTIENGESELLSCHAFT, priority 2015, published 2018).
